pEC50: −log10 of the molar value.

The target in this experiment is T1, human follicle-stimulating hormone receptor (FSHR) (Homo sapiens, UniProt P23945).
T1 construct: host or cells: CHO-K1
T1 sequence (P23945 18-695): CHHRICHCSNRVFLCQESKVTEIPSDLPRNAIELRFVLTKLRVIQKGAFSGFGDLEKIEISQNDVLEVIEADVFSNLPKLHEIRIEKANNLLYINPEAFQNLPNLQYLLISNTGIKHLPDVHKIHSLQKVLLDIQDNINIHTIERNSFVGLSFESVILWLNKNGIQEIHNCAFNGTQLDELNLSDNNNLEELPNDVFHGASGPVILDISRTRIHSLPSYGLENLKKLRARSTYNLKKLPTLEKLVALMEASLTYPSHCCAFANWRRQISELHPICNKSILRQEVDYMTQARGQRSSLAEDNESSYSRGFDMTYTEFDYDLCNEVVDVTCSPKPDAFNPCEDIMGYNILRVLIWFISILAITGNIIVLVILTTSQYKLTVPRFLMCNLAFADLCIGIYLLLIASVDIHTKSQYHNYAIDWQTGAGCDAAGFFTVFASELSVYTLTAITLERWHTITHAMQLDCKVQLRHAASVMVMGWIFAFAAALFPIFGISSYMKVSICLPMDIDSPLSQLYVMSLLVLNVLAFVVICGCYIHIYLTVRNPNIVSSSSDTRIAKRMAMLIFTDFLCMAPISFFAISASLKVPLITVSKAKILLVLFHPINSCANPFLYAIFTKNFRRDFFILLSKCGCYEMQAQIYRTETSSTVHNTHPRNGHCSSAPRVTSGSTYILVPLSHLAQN
The experiment is described as follows: Measurement of agonist cAMP production by activation of human FSHR. The format is cell-based. Conditions: CHO-K1 human FSHR cells, 30 minutes at 37° C., HTRF cAMP kit; read-out: hFSHR Agonist cAMP EC50. As to the method: Measurement of agonist cAMP production by activation of human FSHR
Two days prior to the assay, 5,000 CHO—K1 human FSHR cells (Eurofins #95-0119C2) stably expressing the functional human follicle-stimulating hormone receptor were plated in a 96-well tissue culture-treated plate in growth media supplemented with the appropriate selection agent. […] The cells were incubated for 30 minutes at 37° C. (the final concentrations of the compound ranged from 0-10,000 nM). After the 30-minute incubation at 37° C., lysis buffer (HRTF CAMP kit, Cisbio #62AM5PEB)w as added directly to the cells and incubated for 30-minutes at room temperature. The diluted lysate was transferred and CAMP detection and visualization antibodies (HRTF CAMP kit, Cisbio #62AM5PEB) were added and incubated for 1-24 hours at room temperature. The time-resolved fluorescent signal was read with a Tecan M1000Pro (Tecan) multiplate reader. The intracellular cAMP concentrations were calculated by regression to a standard curve and were plotted vs. the concentration of the agonists. The concentration of test compound or FSH required to generate a half maximal response EC50 were calculated using standard curve-fitting methods. All data manipulations were performed using GraphPad Prism v9.3.1 (GraphPad, San Diego, CA).
In general, pEC50 refers to −log10 of the EC50, conventionally taken in molar units. Consider `COc1cc2c(cc1-c1cccc(NC(=O)CCCCCNC(=O)C(CS(=O)(=O)O)NC(=O)CN3CCN(CC(=O)O)CCN(CC(=O)O)CCN(CC(=O)O)CC3)c1)-c1c(c(C(=O)N3CCOCC3(C)C)nn1-c1cc(Cl)cc(Cl)c1)CO2` (stereo in doubt) [Compound 64, (R)-2,2′,2″-(10-(2-((1-((6-((3-(1-(3,5-dichlorophenyl)-3-(3,3-dimethylmorpholine-4-carbonyl)-7-methoxy-1,4-dihydrochromeno[4,3-c]pyrazol-8-yl)phenyl)amino)-6-oxohexyl)amino)-1-oxo-3-sulfopropan-2-yl)amino)-2-oxoethyl)-1,4,7,10-tetraazacyclododecane-1,4,7-triyl)triacetic acid], for which the negative-log EC50 (pEC50) was more than 8.00. With `COc1cc2c(cc1-c1cccc(NC(=O)NCCOCCOCCOCCOCCOCCOCCNC(=O)CN3CCN(CC(=O)O)CCN(CC(=O)O)CCN(CC(=O)O)CC3)c1)-c1c(c(C(=O)N(C)C(C)(C)C)nn1-c1cc(Cl)cc(Cl)c1)CO2` [Compound 1, 2,2′,2″-(10-(1-((3-(3-(tert-butyl(methyl)carbamoyl)-1-(3,5-dichlorophenyl)-7-methoxy-1,4-dihydrochromeno[4,3-c]pyrazol-8-yl)phenyl)amino)-1,24-dioxo-5,8,11,14,17,20-hexaoxa-2,23-diazapentacosan-25-yl)-1,4,7,10-tetraazacyclododecane-1,4,7-triyl)triacetic acid], the pEC50 is more than 8.00. As to `COc1cc2c(cc1-c1cccc(NC(=O)NCCOCCOCCOCCOCCNC(=O)CN3CCN(CC(=O)O)CCN(CC(=O)O)CCN(CC(=O)O)CC3)c1)-c1c(c(C(=O)N(C)C(C)(C)C)nn1-c1cc(Cl)cc(Cl)c1)CO2` [Compound 2, 2,2′,2″-(10-(1-((3-(3-(tert-butyl(methyl)carbamoyl)-1-(3,5-dichlorophenyl)-7-methoxy-1,4-dihydrochromeno|4,3-c|pyrazol-8-yl)phenyl)amino)-1,18-dioxo-5,8,11,14-tetraoxa-2,17-diazanonadecan-19-yl)-1,4,7,10-tetraazacyclododecane-1,4,7-triyl)triacetic acid], the negative logarithm of the EC50 (pEC50) is more than 8.00. Consider `COc1cc2c(cc1-c1cccc(NC(=O)CCOCCOCCOCCOCCOCCOCCNC(=O)CN3CCN(CC(=O)O)CCN(CC(=O)O)CCN(CC(=O)O)CC3)c1)-c1c(c(C(=O)N(C)C(C)(C)C)nn1-c1cc(Cl)cc(Cl)c1)CO2` [Compound 3A, indium (III) 2,2′,2″-(10-(24-((3-(3-(tert-butyl(methyl)carbamoyl)-1-(3,5-dichlorophenyl)-7-methoxy-1,4-dihydrochromeno[4,3-c]pyrazol-8-yl)phenyl)amino)-2,24-dioxo-6,9,12,15,18,21-hexaoxa-3-azatetracosyl)-1,4,7,10-tetraazacyclododecane-1,4,7-triyl)triacetate], for which the pEC50 was more than 8.00.

In the case of `COc1cc2c(cc1-c1cccc(C(=O)NCCOCCOCCOCCOCCOCCOCCNC(=O)CN3CCN(CC(=O)O)CCN(CC(=O)O)CCN(CC(=O)O)CC3)c1)-c1c(c(C(=O)N(C)C(C)(C)C)nn1-c1cc(Cl)cc(Cl)c1)CO2` [Compound 4], the pEC50 was more than 8.00. In the case of `COc1cc2c(cc1-c1ccc(NC(=O)NCCOCCOCCOCCOCCOCCOCCNC(=O)CN3CCN(CC(=O)O)CCN(CC(=O)O)CCN(CC(=O)O)CC3)cc1)-c1c(c(C(=O)N(C)C(C)(C)C)nn1-c1cc(Cl)cc(Cl)c1)CO2` [Compound 5, 2,2′,2″-(10-(1-((4-(3-(tert-butyl(methyl)carbamoyl)-1-(3,5-dichlorophenyl)-7-methoxy-1,4-dihydrochromeno[4,3-c]pyrazol-8-yl)phenyl)amino)-1,24-dioxo-5,8,11,14,17,20-hexaoxa-2,23-diazapentacosan-25-yl)-1,4,7,10-tetraazacyclododecane-1,4,7-triyl)triacetic acid], the pEC50 was 7.00 to 8.00. For `COc1cc2c(cc1-c1ccc(NC(=O)NCCOCCOCCOCCOCCOCCOCCNC(=O)CN3CCN(CC(=O)O)CCN(CC(=O)O)CCN(CC(=O)O)CC3)cc1)-c1c(c(C(=O)N(C)C(C)(C)C)nn1-c1cc(Cl)cc(Cl)c1)CO2` [Compound 5A, indium (III) 2,2′,2″-(10-(1-((4-(3-(tert-butyl(methyl)carbamoyl)-1-(3,5-dichlorophenyl)-7-methoxy-1,4-dihydrochromeno[4,3-c]pyrazol-8-yl)phenyl)amino)-1,24-dioxo-5,8,11,14,17,20-hexaoxa-2,23-diazapentacosan-25-yl)-1,4,7,10-tetraazacyclododecane-1,4,7-triyl)triacetate], the pEC50 is more than 8.00.

On to `COc1cc2c(cc1-c1ccc(NC(=O)NCCOCCOCCOCCOCCNC(=O)CN3CCN(CC(=O)O)CCN(CC(=O)O)CCN(CC(=O)O)CC3)cc1)-c1c(c(C(=O)N(C)C(C)(C)C)nn1-c1cc(Cl)cc(Cl)c1)CO2` [Compound 6, 2,2′,2″-(10-(1-((4-(3-(tert-butyl(methyl)carbamoyl)-1-(3,5-dichlorophenyl)-7-methoxy-1,4-dihydrochromeno|4,3-clpyrazol-8-yl)phenyl)amino)-1,18-dioxo-5,8,11,14-tetraoxa-2,17-diazanonadecan-19-yl)-1,4,7,10-tetraazacyclododecane-1,4,7-triyl)triacetic acid], for which the pEC50 is more than 8.00. Take `COc1cc2c(cc1-c1cccc(NC(=O)NCCOCCOCCOCCOCCOCCOCCNC(=O)CN3CCN(CC(=O)O)CCN(CC(=O)O)CCN(CC(=O)O)CC3)c1)-c1c(c(C(=O)N3CCOCC3(C)C)nn1-c1cc(Cl)cc(Cl)c1)CO2` [Compound 7]: the pEC50 is more than 8.00.

Take `COc1cc2c(cc1-c1cccc(NC(=O)NCCOCCOCCOCCOCCNC(=O)CN3CCN(CC(=O)O)CCN(CC(=O)O)CCN(CC(=O)O)CC3)c1)-c1c(c(C(=O)N3CCOCC3(C)C)nn1-c1cc(Cl)cc(Cl)c1)CO2` [Compound 8, 2,2′,2″-(10-(1-((3-(1-(3,5-dichlorophenyl)-3-(3,3-dimethylmorpholine-4-carbonyl)-7-methoxy-1,4-dihydrochromeno[4,3-c]pyrazol-8-yl)phenyl)amino)-1,18-dioxo-5,8,11,14-tetraoxa-2,17-diazanonadecan-19-yl)-1,4,7,10-tetraazacyclododecane-1,4,7-triyl)triacetic acid]: the pEC50 was 7.00 to 8.00.

For the compound `COc1cc2c(cc1-c1cccc(NC(=O)NCCOCCOCCOCCOCCNC(=O)CN3CCN(CC(=O)O)CCN(CC(=O)O)CCN(CC(=O)O)CC3)c1)-c1c(c(C(=O)N3CCOCC3(C)C)nn1-c1cc(Cl)cc(Cl)c1)CO2` [Compound 8A], the pEC50 was more than 8.00.

With `COc1cc2c(cc1-c1cccc(NC(=O)C3CCN(C(=O)CN4CCN(CC(=O)O)CCN(CC(=O)O)CCN(CC(=O)O)CC4)CC3)c1)-c1c(c(C(=O)N3CCOCC3(C)C)nn1-c1cc(Cl)cc(Cl)c1)CO2` [Compound 9, 2,2′,2″-(10-(2-(4-((3-(1-(3,5-dichlorophenyl)-3-(3,3-dimethylmorpholine-4-carbonyl)-7-methoxy-1,4-dihydrochromeno[4,3-c]pyrazol-8-yl)phenyl)carbamoyl)piperidin-1-yl)-2-oxoethyl)-1,4,7,10-tetraazacyclododecane-1,4,7-triyl)triacetic acid], the pEC50 is 7.00 to 8.00.

Values taken from patent US20260137819A1 (Radionetics Oncology, Inc., priority 2022, published 2026).
